Measured values from US20160130257A1, “Macrocyclic proteasome inhibitors” (BROWN UNIVERSITY, priority 2013, published 2016).
pIC50: −log10 of the molar value. Read-outs that look alike come from different tables or passages of the source.

Experiments:
[1] = target: Mycobacterium tuberculosis 20S peptidase (mtb 20S) (Mycobacterium tuberculosis, UniProt P9WHT9)
[2] = tested on: non-heme chloroperoxidase SCO0456 gene transcription; assay: Peroxidase gene (SCO0456) transcription assay of proteasome inhibition in S. coelicolor; format: cell-based, Streptomyces coelicolor; conditions: for transcription of the proteasome-dependent peroxidase gene: S. coelicolor wild-type, RT-PCR / reporter
[3] = target: mycobacterial proteasome (Mycobacterium tuberculosis, UniProt P9WHT9); conditions: cited from earlier work
Sequence of mycobacterial proteasome (P9WHT9 58-291): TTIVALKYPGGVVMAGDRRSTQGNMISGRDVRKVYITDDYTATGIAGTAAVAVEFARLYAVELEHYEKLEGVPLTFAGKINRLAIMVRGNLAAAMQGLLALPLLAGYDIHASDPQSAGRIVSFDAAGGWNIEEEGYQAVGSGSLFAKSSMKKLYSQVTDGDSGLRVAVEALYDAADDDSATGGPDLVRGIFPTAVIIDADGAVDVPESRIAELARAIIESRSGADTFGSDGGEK
Sequence of mycobacterial proteasome (P9WHU1 whole entry partner): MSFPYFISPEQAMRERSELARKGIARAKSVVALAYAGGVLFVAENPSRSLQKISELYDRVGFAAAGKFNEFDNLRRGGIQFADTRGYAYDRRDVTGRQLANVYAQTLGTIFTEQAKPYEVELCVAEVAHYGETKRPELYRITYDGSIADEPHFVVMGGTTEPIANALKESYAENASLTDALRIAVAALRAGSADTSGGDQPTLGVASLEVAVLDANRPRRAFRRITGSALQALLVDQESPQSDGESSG

[4] = tested on: 60 different human tumor cell lines; format: cell-based
Excerpt: The In Vitro Cell Line Screening Project (IVCLSP) is a dedicated service providing direct support to the DTP anticancer drug discovery program. The screen utilizes 60 different human tumor cell lines, representing leukemia, melanoma and cancers of the lung, colon, brain, ovary, breast, prostate, and kidney. IVCLSP is unique because the complexity of a 60 cell line dose response produced by a given compound results in a biological response pattern, which can be utilized in pattern recognition algorithms. Using the pattern recognition algorithms, it is possible to assign a putative mechanism of action to a test compound, or to determine that the response pattern is unique and not similar to that of any of the standard prototype compounds included in the NCI database. The methodology of the in vitro cancer screen is available from the NIH.

Sequence of Mycobacterium tuberculosis 20S peptidase (mtb 20S) (P9WHT9 58-291): as the sequence (P9WHT9 58-291) above
Sequence of Mycobacterium tuberculosis 20S peptidase (mtb 20S) (P9WHU1 whole entry partner): as the sequence (P9WHU1 whole entry partner) above

COC(=O)C(NC(=O)N1CCCC1C(=O)NC1CCCCNC(=O)C=CC(Cc2c[nH]c3ccccc23)NC1=O)C(C)C (stereo not drawn) [Compound O]
pIC50 [1]: 5.57 | selective inhibition of M. tuberculosis proteasome compared to human proteasome (in words, from ratio of IC50 values) [1]: selectively inhibits | selectivity for the mycobacterial proteasome compared to the human enzyme [1]: 13.4 fold | selectivity of M. tuberculosis proteasome inhibition compared to Syringolin B [1]: more than 1,900 times

CC(C)C1/C=C\C(=O)NCCCCC(NC(=O)C(NC(=O)NC(C(=O)O)C(C)C)C(C)C)C(=O)N1 (stereo not drawn) [Syringolin B]
SCO0456 expression (gel electrophoresis of RNA samples) ([2]; wild-type S. coelicolor, 150 μg/ml, 5 hours, 30° C.): up regulated

CC(C)C[C@H](NC(=O)[C@H](Cc1ccccc1)NC(=O)c1cnccn1)B(O)O [bortezomib, Bortezomib]
transcription of the proteasome-dependent peroxidase gene [2]: significantly up-regulated | inhibition of proteasomes (in words) [3]: inhibit the mycobacterial proteasomes | inhibition of proteasomes (in words) ([3]; listed as Bortezomib): inhibits both bacterial and human proteasomes

COC(=O)C(NC(=O)NCC(=O)NC1CCCCNC(=O)C=CC(Cc2c[nH]c3ccccc23)NC1=O)C(C)C (stereo not drawn) [Compound P]
transcription of the proteasome-dependent peroxidase gene [2]: induced transcription of the peroxidase reporter gene | toxicity to human cells [4]: not toxic to human cells | killing of cancer cells ([4]; 60 cancer cell lines): does not kill cancer cells | inhibition of cancer cell proteasomes ([4]; inferred from 60 cell line screen): does not inhibit cancer cell proteasomes | pIC50 [1]: 9.94 | selective inhibition of M. tuberculosis proteasome compared to human proteasome (in words, from ratio of IC50 values) [1]: selectively inhibits | selectivity for M. tuberculosis proteasome than human proteasome [1]: 46 times | selectivity for the mycobacterial proteasome compared to the human enzyme [1]: 45.6 fold | selectivity of M. tuberculosis proteasome inhibition compared to Syringolin B [1]: more than 6,500 times

CCCCCCCCC[C@@H](O)CC(=O)N[C@@H](CC(N)=O)C(=O)N[C@@H](CCC(N)=O)C(=O)N[C@H](C=O)CC(C)C [Fellutamide B]
inhibition of proteasomes (in words) [3]: inhibit the mycobacterial proteasomes
